Reference: ChEMBL document CHEMBL4196088, “Induction of cell killing and autophagy by amphiphilic pyrrolidine derivatives on human pancreatic cancer cells” (Eur J Med Chem, 2018)
Calls of active or inactive are those of the source. The calls are words filed in the database; no cut-off is given here.

Assays:
PANC-1 [1] = assay: Growth inhibition of human PANC1 cells at 20 uM after 72 hrs; type: functional, cell-based
SK-BR-3 = assay: Growth inhibition of human SKBR3 cells at 20 uM after 72 hrs; type: functional, cell-based
PK9 [2] = assay: Growth inhibition of human PK9 cells at 20 uM after 72 hrs by MTT assay; type: functional, cell-based
PANC-1 [3] = assay: Induction of apoptosis in human PANC1 cells assessed as accumulation at sub-G0/G1 phase at 10 uM after 24 hrs by propidium iodide staining based flow cytometry (reference value: 0.6 to 0.7%); type: functional
PK9 [4] = assay: Induction of apoptosis in human PK9 cells assessed as accumulation at sub-G0/G1 phase at 20 uM after 24 hrs by propidium iodide staining based flow cytometry (reference value: 2.2%); type: functional
Fibroblast [5] = assay: Induction of apoptosis in human primary fibroblasts at 20 uM after 24 hrs by propidium iodide staining based flow cytometry (reference value: 4.8%); type: cell-based
PK9 [6] = assay: Induction of apoptosis in human PK9 cells assessed as accumulation at sub-G0/G1 phase at 20 uM after 72 hrs by propidium iodide staining based flow cytometry (reference value: 4%); type: functional
PK9 [7] = assay: Induction of apoptosis in human PK9 cells assessed as accumulation at sub-G0/G1 phase at 10 uM after 24 hrs by propidium iodide staining based flow cytometry (reference value: 2.2%); type: functional
Fibroblast [8] = assay: Induction of apoptosis in human primary fibroblasts assessed as accumulation at sub-G0/G1 phase at 10 uM after 24 hrs by propidium iodide staining based flow cytometry (reference value: 4.8%); type: cell-based
PANC-1 [9] = assay: Induction of apoptosis in human PANC1 cells assessed as accumulation at sub-G0/G1 phase at 20 uM after 48 hrs by propidium iodide staining based flow cytometry (reference value: 0.2 to 2.9%); type: functional
PANC-1 [10] = assay: Induction of apoptosis in human PANC1 cells assessed as accumulation at sub-G0/G1 phase at 10 uM after 72 hrs by propidium iodide staining based flow cytometry (reference value: 1.6 to 3.2%); type: functional
[11] = Induction of apoptosis in HPNE cells assessed as accumulation at sub-G0/G1 phase at 20 uM after 72 hrs by propidium iodide staining based flow cytometry (reference value: 6.6%); type: cell-based; conditions: human
PANC-1 [12] = assay: Induction of apoptosis in human PANC1 cells assessed as accumulation at sub-G0/G1 phase at 20 uM after 24 hrs by propidium iodide staining based flow cytometry (reference value: 0.6 to 0.7%); type: functional
Fibroblast [13] = assay: Induction of apoptosis in human primary fibroblasts assessed as accumulation at sub-G0/G1 phase at 10 uM after 48 hrs by propidium iodide staining based flow cytometry (reference value: 6.1%); type: cell-based
Fibroblast [14] = assay: Induction of apoptosis in human primary fibroblasts at 20 uM after 48 hrs by propidium iodide staining based flow cytometry (reference value: 6.1%); type: cell-based
Fibroblast [15] = assay: Induction of apoptosis in human primary fibroblasts at 20 uM after 72 hrs by propidium iodide staining based flow cytometry (reference value: 6.7%); type: cell-based
Fibroblast [16] = assay: Induction of apoptosis in human primary fibroblasts assessed as accumulation at sub-G0/G1 phase at 10 uM after 72 hrs by propidium iodide staining based flow cytometry (reference value: 6.7%); type: cell-based
[17] = Induction of apoptosis in HPNE cells assessed as accumulation at sub-G0/G1 phase at 10 uM after 24 hrs by propidium iodide staining based flow cytometry (reference value: 0.6%); type: cell-based; conditions: human
PANC-1 [18] = assay: Induction of apoptosis in human PANC1 cells assessed as accumulation at sub-G0/G1 phase at 10 uM after 48 hrs by propidium iodide staining based flow cytometry (reference value: 0.2 to 2.9%); type: functional
PANC-1 [19] = assay: Induction of apoptosis in human PANC1 cells assessed as accumulation at sub-G0/G1 phase at 20 uM after 72 hrs by propidium iodide staining based flow cytometry (reference value: 1.6 to 3.2%); type: functional
PK9 [20] = assay: Induction of apoptosis in human PK9 cells assessed as accumulation at sub-G0/G1 phase at 10 uM after 48 hrs by propidium iodide staining based flow cytometry (reference value: 3.8%); type: functional
PK9 [21] = assay: Induction of apoptosis in human PK9 cells assessed as accumulation at sub-G0/G1 phase at 20 uM after 48 hrs by propidium iodide staining based flow cytometry (reference value: 3.8%); type: functional
[22] = Induction of apoptosis in HPNE cells assessed as accumulation at sub-G0/G1 phase at 10 uM after 72 hrs by propidium iodide staining based flow cytometry (reference value: 6.6%); type: cell-based; conditions: human
HeLa = assay: Growth inhibition of human HeLa cells after 72 hrs; type: functional, cell-based
[23] = Induction of apoptosis in HPNE cells assessed as accumulation at sub-G0/G1 phase at 20 uM after 48 hrs by propidium iodide staining based flow cytometry (reference value: 0.7%); type: cell-based; conditions: human
[24] = Induction of apoptosis in HPNE cells assessed as accumulation at sub-G0/G1 phase at 20 uM after 24 hrs by propidium iodide staining based flow cytometry (reference value: 0.6%); type: cell-based; conditions: human
PK9 [25] = assay: Induction of apoptosis in human PK9 cells assessed as accumulation at sub-G0/G1 phase at 10 uM after 72 hrs by propidium iodide staining based flow cytometry (reference value: 4%); type: functional
[26] = Induction of apoptosis in HPNE cells assessed as accumulation at sub-G0/G1 phase at 10 uM after 48 hrs by propidium iodide staining based flow cytometry (reference value: 0.7%); type: cell-based; conditions: human
BXPC-3 [27] = assay: Induction of apoptosis in human BxPC3 cells assessed as accumulation at sub-G0/G1 phase harboring pSFFV-Bcl-XL at 20 uM after 48 hrs by propidium iodide staining based flow cytometry (reference value: 1.3%); type: functional
BXPC-3 [28] = assay: Induction of apoptosis in human BxPC3 cells assessed as accumulation at sub-G0/G1 phase at 10 uM after 48 hrs by propidium iodide staining based flow cytometry (reference value: 2.8%); type: functional
BXPC-3 [29] = assay: Induction of apoptosis in human BxPC3 cells assessed as accumulation at sub-G0/G1 phase at 10 uM after 72 hrs by propidium iodide staining based flow cytometry (reference value: 3.4%); type: functional
BXPC-3 [30] = assay: Induction of apoptosis in human BxPC3 cells harboring pSFFV-Bcl-XL assessed as accumulation at sub-G0/G1 phase at 10 uM after 24 hrs by propidium iodide staining based flow cytometry (reference value: 1.5%); type: functional
BXPC-3 [31] = assay: Induction of apoptosis in human BxPC3 cells harboring pSFFV-Bcl-XL assessed as accumulation at sub-G0/G1 phase at 10 uM after 48 hrs by propidium iodide staining based flow cytometry (reference value: 1.9%); type: functional
BXPC-3 [32] = assay: Induction of apoptosis in human BxPC3 cells assessed as accumulation at sub-G0/G1 phase at 10 uM after 24 hrs by propidium iodide staining based flow cytometry (reference value: 1.8%); type: functional
BXPC-3 [33] = assay: Induction of apoptosis in human BxPC3 cells assessed as accumulation at sub-G0/G1 phase harboring pSFFV-Bcl-XL at 20 uM after 72 hrs by propidium iodide staining based flow cytometry (reference value: 1.3%); type: functional
BXPC-3 [34] = assay: Induction of apoptosis in human BxPC3 cells assessed as accumulation at sub-G0/G1 phase at 20 uM after 24 hrs by propidium iodide staining based flow cytometry (reference value: 2.3%); type: functional
BXPC-3 [35] = assay: Induction of apoptosis in human BxPC3 cells assessed as accumulation at sub-G0/G1 phase at 20 uM after 48 hrs by propidium iodide staining based flow cytometry (reference value: 2.8%); type: functional
BXPC-3 [36] = assay: Induction of apoptosis in human BxPC3 cells assessed as accumulation at sub-G0/G1 phase harboring pSFFV-Bcl-XL at 20 uM after 24 hrs by propidium iodide staining based flow cytometry (reference value: 1.2%); type: functional
BXPC-3 [37] = assay: Induction of apoptosis in human BxPC3 cells assessed as accumulation at sub-G0/G1 phase at 20 uM after 72 hrs by propidium iodide staining based flow cytometry (reference value: 3.4%); type: functional
BXPC-3 [38] = assay: Induction of apoptosis in human BxPC3 cells harboring pSFFV-Bcl-XL assessed as accumulation at sub-G0/G1 phase at 10 uM after 72 hrs by propidium iodide staining based flow cytometry (reference value: 2%); type: functional

CCCCCCCC/C=C\CCCCCCCCOC[C@@H]1[C@@H](O)[C@@H](O)CN1Cc1ccccc1
growth inhibition (GI) (PANC-1 [1]): inactive | growth inhibition (GI) (SK-BR-3): Active | growth inhibition (GI) (PK9 [2]): inactive

CCCCCCCC/C=C\CCCCCCCCOC[C@@H]1[C@@H](O)[C@@H](O)CN1C
growth inhibition (GI) (PANC-1 [1]): inactive | growth inhibition (GI) (SK-BR-3): Active | growth inhibition (GI) (PK9 [2]): inactive

CCCCCCCC/C=C\CCCCCCCCOC[C@@H]1[C@@H](O)[C@@H](O)CN1C(N)=O
growth inhibition (GI) (PANC-1 [1]): inactive | growth inhibition (GI) (SK-BR-3): Active | growth inhibition (GI) (PK9 [2]): inactive

Cl.O[C@H]1CN[C@H](COCCCCCCCCC/C=C/c2ccc(Oc3ccccc3)cc2)C1
Activity (PANC-1 [3]): 11.5% | Activity (PK9 [4]): 20.6% | Activity (Fibroblast [5]): 75.1% | Activity (PK9 [6]): 27.8% | Activity (PK9 [7]): 4.3% | Activity (Fibroblast [8]): 9.8% | Activity (PANC-1 [9]): 49.5% | Activity (PANC-1 [10]): 35.1% | Activity [11]: 91.2% | Activity (PANC-1 [12]): 8.9% | Activity (Fibroblast [13]): 6.6% | Activity (Fibroblast [14]): 87.9% | Activity (Fibroblast [15]): 82.1% | Activity (Fibroblast [16]): 6.5% | Activity [17]: 67.1% | Activity (PANC-1 [18]): 25.3% | Activity (PANC-1 [19]): 56.1% | Activity (PK9 [20]): 10.8% | Activity (PK9 [21]): 23.1% | Activity [22]: 88% | IC50 (HeLa): 3.6 µM | Activity [23]: 86.8% | Activity [24]: 62.4% | Activity (PK9 [25]): 5.4% | Activity [26]: 86.1%

Cl.O[C@H]1CN[C@H](COCCCCCCCC/C=C/c2ccc(Oc3ccccc3)cc2)C1
Activity (PANC-1 [3]): 12.9% | Activity (PK9 [4]): 30.1% | Activity (Fibroblast [5]): 40.1% | Activity (PK9 [6]): 48.7% | Activity (PK9 [7]): 3.5% | Activity (Fibroblast [8]): 9.1% | Activity (PANC-1 [9]): 33.7% | Activity (PANC-1 [10]): 28.2% | Activity [11]: 94.3% | Activity (PANC-1 [12]): 14.7% | Activity (Fibroblast [13]): 6.5% | Activity (Fibroblast [14]): 74.8% | Activity (Fibroblast [15]): 72.7% | Activity (Fibroblast [16]): 8.1% | Activity [17]: 42.8% | Activity (PANC-1 [18]): 21.8% | Activity (PANC-1 [19]): 43.8% | Activity (PK9 [20]): 7.4% | Activity (PK9 [21]): 46.5% | Activity [22]: 85.9% | IC50 (HeLa): 3.9 µM | Activity [23]: 87.5% | Activity [24]: 66.6% | Activity (PK9 [25]): 6.9% | Activity [26]: 72.9%

CCCCCCCC/C=C\CCCCCCCCOCC[C@H]1NC[C@H](O)[C@@H]1O
Activity (BXPC-3 [27]): 3.4% | Activity (BXPC-3 [28]): 11.5% | Activity (BXPC-3 [29]): 14.6% | Activity (PANC-1 [3]): 4.7% | Activity (PK9 [4]): 8.3% | Activity (BXPC-3 [30]): 3% | Activity (PK9 [6]): 37.7% | Activity (PK9 [7]): 2.8% | Activity (Fibroblast [8]): 8.7% | Activity (PANC-1 [9]): 13.6% | Activity (PANC-1 [10]): 9.7% | Activity [11]: 73% | Activity (BXPC-3 [31]): 3.1% | Activity (PANC-1 [12]): 5% | Activity (Fibroblast [13]): 8.2% | Activity (BXPC-3 [32]): 4.6% | Activity (BXPC-3 [33]): 4.1% | Activity (BXPC-3 [34]): 17.7% | Activity (BXPC-3 [35]): 32.5% | Activity (Fibroblast [16]): 9.2% | Activity [17]: 12.1% | Activity (PANC-1 [18]): 3.9% | Activity (BXPC-3 [36]): 2.3% | Activity (PANC-1 [19]): 22.6% | Activity (PK9 [20]): 3.4% | Activity (PK9 [21]): 30.5% | Activity (BXPC-3 [37]): 46.2% | Activity (BXPC-3 [38]): 3.1% | Activity [22]: 62.8% | Activity [23]: 67.5% | Activity [24]: 63.8% | Activity (PK9 [25]): 2.7% | Activity [26]: 22.2%

CCCCCCCC/C=C\CCCCCCCCOC[C@@H]1[C@@H](O)[C@@H](O)CN1C(C)C
growth inhibition (GI) (PANC-1 [1]): inactive | growth inhibition (GI) (SK-BR-3): Active | growth inhibition (GI) (PK9 [2]): inactive

CCCCCCCC/C=C\CCCCCCCCOC[C@@H]1[C@@H](O)[C@@H](O)CN1C(C)=O
growth inhibition (GI) (PANC-1 [1]): inactive | growth inhibition (GI) (SK-BR-3): Active | growth inhibition (GI) (PK9 [2]): inactive

CCCCCCCC/C=C\CCCCCCCCOC[C@@H]1[C@@H](O)[C@@H](O)CN1CCCC
growth inhibition (GI) (PANC-1 [1]): inactive | growth inhibition (GI) (SK-BR-3): Active | growth inhibition (GI) (PK9 [2]): inactive
